Patent US20220195059A1, “Rank Pathway Inhibitors in Combination with CDK Inhibitors” (INSTITUTO DE MEDICINA MOLECULAR JOÃO LOBO ANTUNES, priority 2019, published 2022)

Legend:
[1] = test system: MDA-MB-231 GFP+Luc+ xenografts; test: Pilot study, orthotopic TNBC xenografts; assay type: in vivo, NSG mice; settings: measured throughout the experiment; between groups
Experimental: A pilot study to test the sensitivity of TNBC xenografts to CDK4/6 inhibitors (palbociclib) in combination with RANK pathway blockage (OPG-Fc) was performed. […] As shown in this figure, body weight was not different between groups. The proliferation index of tumors as measured by the quantification of Ki67-positive cells and p-pRB positive cells is shown in FIG. 13D. FIG. 13C is a series of images of Ki67-stained or p-pRb stained cells.

MDA-MB-231 TNBC cells = test: Alamar blue viability assay, MDA-MB-231 TNBC cells with or without RANK knockdown; assay type: cell-based, human; settings: 7 days
Experimental: For lentiviral transduction, MDA-MB-231GFP+Luc+ cells were seeded in 24-well plates, at a density of 4×10^4 cells/well. 24 hours after seeding, medium was replaced by fresh medium containing 8 μg/ml Polybrene (Sigma) and RANK shRNA (h) lentiviral particles (15-20 μl/well; sc-42960-V, Santa Cruz) or control shRNA lentiviral particles (15-20 μl/well; sc-108080, Santa Cruz). Cells were selected with 0.5 μg/mL Puromycin dihydrochloride (Sigma) starting three days after transduction.
(§1) Cells were seeded in 96 well-plates (2-5×10^4 cells/mL), with or without paclitaxel (Y0000698, Sigma), doxorubicin hydrochloride (D2975000, Sigma), palbociclib (PD 0332991 isethionate, PZ0199, Sigma), ribociclib (LEE011 succinate, SC-488174, Santa Cruz), abemaciclib mesylate (LY2835219, S7158, Selleckchem), fulvestrant (S1191, Selleckchem), everolimus (#73122, StemCell Technologies), full length human OPG (SRP3132, Sigma), and OPG-Fc (Amgen). Medium was replaced every 2 days. After 7 days, 1:10 Alamar blue (Invitrogen) was added to each well and fluorescence was measured 2 hours after incubation (excitation 560 nm; emission 590 nm) in an Infinite M200 microplate reader (Tecan).
RANK KD clones were first generated for use in sensitivity assays. Briefly, MCF-7GFP+Luc+ cells were seeded in multi-well plates and then exposed to fresh medium comprising RANK shRNA (h) lentiviral particles or control shRNA lentiviral particles. The transduced cells were selected using Puromycin dihydrochloride starting three days post-transduction.

[2] = test system: TNBC cells (MDA-MB-231, MDA-MB-436, MDA-MB-468, MDA-MB-157, HCC1937, BT-20); test: Alamar blue viability assay, TNBC cell lines with or without OPG-Fc; assay type: cell-based, human; settings: 7 days
Experimental: as §1
Medium was replaced every two days, and viability was assessed by Alamar blue assay.
Cells were seeded in 96 well-plates (2-5×10^4 cells/mL), with or without palbociclib (PD 0332991 isethionate, PZ0199, Sigma), ribociclib (LEE011 succinate, SC-488174, Santa Cruz), abemaciclib mesylate (LY2835219, S7158, Selleckchem), 3-ATA (sc-202414, Santa Cruz), Cdk4 inhibitor Ill (sc-202988, Santa Cruz), seliciclib (S1153, Selleckchem), and OPG-Fc (PL-33324, Amgen). Medium was replaced every 2 days. After 7 days, 1:10 Alamar blue (Invitrogen) was added to each well and fluorescence was measured 2 hours after incubation (excitation 560 nm; emission 590 nm) in an Infinite M200 microplate reader (Tecan).

[3] = test system: cyclin D1, CDK4, CDK6, Cyclin E and CDK2 expression in RANK OE (MCF-7 OE) cells; test: Western blot of proteins involved in cyclin/CDKs complexes; assay type: cell-based, human; settings: 0, 24 or 72 hours
Experimental: Membranes were blocked for 1 h at room temperature (RT) in 5% Non-Fat Dry Milk (NFDM) in PBS-0.1% Tween (PBST) for β-actin; or in 5% bovine serum albumin (BSA) (Santa Cruz) for other antibodies. […] Proteins were detected using a Novex® ECL HRP chemiluminescent substrate reagent kit (Invitrogen) according to the manufacturer's instructions, and x-ray films (Fujifilm) developed in a Curix 60 processor (AGFA), or the Amersham™ Imager 680 (GE Healthcare Life Sciences). Normalized protein expression was calculated using FIJI software and band densitometry analysis.
Briefly, expression of cyclin D1, CDK4, CDK6, Cyclin E and CDK2 were analyzed by Western blotting cell lysates of RANK OE (MDF-7 OE) cells exposed to palbociclib for 0 hours, 24 hours or 72 hours, and compared to the corresponding expression levels in the parental counterpart cells (expressing low levels of RANK; MCF-7 cells). […]

Compound: CC(=O)c1c(C)c2cnc(Nc3ccc(N4CCNCC4)cn3)nc2n(C2CCCC2)c1=O [palbociclib]
- body weight [1]: not different
- sensitivity to CDK4/6 inhibitor (cell viability) (MDA-MB-231 TNBC cells; MDA-231 cells and MDA-231 shControl cells): resistance
- sensitivity to CDK4/6 inhibitor (cell viability) (MDA-MB-231 TNBC cells; TNBC RANK KD cells (MDA-231 shRANK) vs RANK expressing cells): restored sensitivity
- sensitivity of TNBC cells to CDK4/6 inhibitor (cell viability) [2]: resistance
- CyclinD1, CDK4 and CDK2 expression upon exposure to CDK4/6 inhibitor [3]: increased
